Source: publication PMC7796031, “Studies of Coumarin Derivatives for Constitutive Androstane Receptor (CAR) Activation” (Molecules, 2020)

How the values were obtained:
[1] = test system: phosphoenopyruvate carboxykinse (PEPCK) mRNA expression; test: PEPCK mRNA expression induced by dexamethasone and 8-bromo-cAMP in H4IIE cells; assay type: cell-based, rat; conditions: dexamethasone (500 nM) + 8-bromo-cAMP, test compounds as printed
Experimental: S21 Effects of scoparone, 50 (PLH), and 6 on phosphoenopyruvate carboxykinse (PEPCK) mRNA expression induced by dexamethasone and 8-bromo-cAMP.
A quantified result of dexamethasone (500 nM) and 8-bromo-cAMP (100µM) induced PEPCK mRNA expression in the presence or absence of scoparone, 50 (PLH) and 6 at 0.78 µM was shown. Insulin (10 nM) was served as an experimental control. Quantified data was presented as mean ± S.E.M. (n = 4). **P < 0.01 and ***P < 0.001 when compared with induction control (None).
PEPCK mRNA could be induced by dexamethasone and 8-bromo-cAMP after 3hr. The presence of insulin […]
Scoparone, at 0.78 µM, can suppress PEPCK
In contrast, both 50 (PLH) and 6 could also suppress PEPCK
Cell culture: The rat H4IIE cells were cultured in Dulbecco’s Modified Eagle’sMedium (DMEM) containing 1 g/L glucose, 5% (v/v) fetal calf serum (FBS) and 1% (v/v) antibiotics (100 U/mL penicillin and 0.1 g/L streptomycin). Cultured cells were maintained at 37 ◦C in an atmosphere of 5% CO2 and 95% air.
The measurement of PEPCK gene expression: H4IIE cells were seeded into 6 cm dish and allowed for the attachment. After serum starvation overnight, cells were treated with various conditions described in the figure legend. After treatment, total RNA of each treatment was extracted using TRI-reagent according to the manufacturer’s instructions. The pelleted RNA was dissolved in distilled water, quantified with NanoDrop™ 1000 Spectrophotometer (Thermo Fisher Scientific, USA) and stored at −70 ◦C. Total RNA (1µg) was reverse transcribed to generate templates. 50 ng of cDNA was employed for further PCR. The sequences of […]
primers for β-actin: 5’-[…]- 3’ and 5’-[…]-3’ and […]
(1 picture or pasted object on this page, not shown here)

UGT1A1 = test: Protein expression of UGT1A1 (western blot); assay type: cell-based, human
Experimental: 1 × 10^6 cells were seeded in a 10 cm plate, incubated at 37 °C for overnight and treated with various concentrations of compounds for the indicated times. After incubation, the culture medium was removed and washed twice with 2 mL ice-cold 1× PBS. Three hundred μL of protein lysis buffer (150 mM NaCl, 50 mM Tris-HCl (pH 7.4), 1% SDS, 1% Triton X-100, 1 mM PMSF) was added into each plate, scraped with a rubber policeman, collected into a premarked microtube and the incubated in ice for 1 h, sonicated by Ultrasonic Cell Disruptor for three time at 5 s each. The cell lysated was cleared by centrifugation at 12,000× g for 15 min at 4 °C. Supernatants were transferred into a fresh marked microtube and stored at −20 °C for future use.
Protein concentration of each sample was determined using a BCA Protein Assay Kit (Pirece®, Thermo Scientific). Different percentages of SDS-PAGE gels were prepared according to the molecular size of proteins of interest. After complete polymerization of stacking gels, each sample with equal amount of total protein was separated in polyacrylamide gels (stacking gel: 50 v, 60 min; separating gel: 100 v, 60 min). After separating, wet-transfer method was utilized to transfer proteins onto the PVDF membrane. The gels were assembled in the transfer sandwich and put in a transfer tank filled with transfer buffer (25 mM glycine, 0.15% ethanolamine, 20% methanol). The electro-transfer was performed at the voltage of 100 volt for 80 min at 4 °C. After transfer, PVDF-membrane was blocked with 5% BSA in 1× TBS-Tween at room temperature for 1 h. Membrane was washed with 10 mL 1× TBS-Tween three times and incubated with primary antibodies overnight at 4 °C with gentle agitation. After primary antibody was removed, the membrane was washed three times with 10 mL 1× TBS-Tween for 10 min at room temperature with constant shaking. […] The emitted fluorescence from the membrane was caught on a LAS-4000 biomolecule imager (FUJI.).

Structure (SMILES)	suppression of PEPCK mRNA induction [1]	protein expression of UGT1A (CAR downstream gene) (UGT1A1; Figure 2, after scoparone or CITCO treatment)	UGT1A1 protein level (UGT1A1; Hep3B)
COc1cc2ccc(=O)oc2cc1OC [Compound 39, scoparone]	level similar to insulin	upregulated	–
CC(C)=CCOc1cc2ccc(=O)oc2cc1OCC=C(C)C [Compound 50, 6,7-diprenoxycoumarin]	less potent	–	not significantly increased
